Data from PubChem BioAssay (NCI).
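Protocol summary: plate cells (96-well), add compound at 5 concentrations, incubate 48 h, interpolate endpoints linearly. GI50 is the concentration that inhibits growth by half. TGI: total growth inhibition.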

What was measured:
Assay in all cases: NCI anticancer screen, dose series, 48 h
DU-145 prostate = system: DU-145 prostate
HOP-62 NSCLC = system: HOP-62 NSCLC
RXF 393 renal = system: RXF 393 renal
SF-268 CNS = system: SF-268 CNS
ACHN renal = system: ACHN renal
SK-MEL-28 melanoma = system: SK-MEL-28 melanoma
HL-60(TB) leukemia = system: HL-60(TB) leukemia
M14 melanoma = system: M14 melanoma
SNB-19 CNS = system: SNB-19 CNS
COLO 205 colon = system: COLO 205 colon
OVCAR-8 ovarian = system: OVCAR-8 ovarian
OVCAR-4 ovarian = system: OVCAR-4 ovarian
A498 renal = system: A498 renal
CCRF-CEM leukemia = system: CCRF-CEM leukemia
HCT-15 colon = system: HCT-15 colon
K-562 leukemia = system: K-562 leukemia
SR leukemia = system: SR leukemia
SK-OV-3 ovarian = system: SK-OV-3 ovarian
PC-3 prostate = system: PC-3 prostate
T-47D breast = system: T-47D breast
IGROV1 ovarian = system: IGROV1 ovarian
TK-10 renal = system: TK-10 renal
HCC-2998 colon = system: HCC-2998 colon
NCI-H226 lung = system: NCI-H226 lung
UO-31 renal = system: UO-31 renal
SW-620 colon = system: SW-620 colon
HS 578T breast = system: HS 578T breast
786-0 renal = system: 786-0 renal
MOLT-4 leukemia = system: MOLT-4 leukemia
OVCAR-5 ovarian = system: OVCAR-5 ovarian
KM12 colon = system: KM12 colon
SF-539 CNS = system: SF-539 CNS
HCT-116 colon = system: HCT-116 colon
OVCAR-3 ovarian = system: OVCAR-3 ovarian

**Q.** What does the source list for CC(C)(C)NCCC(O)c1cc2c(Cl)cc(Cl)cc2c2cc(C(F)(F)F)ccc12 (stereo not given)?
**A.** GI50 (DU-145 prostate): 1970 nM; TGI (DU-145 prostate): 3500 nM

**Q.** With COc1ccc(C2=Nc3c/c(=C\c4c(O)[nH]c5ccc(Cl)cc45)ccc3=N2)cc1 as the compound, how does the GI50 (HOP-62 NSCLC) read?
**A.** The GI50 was 1820 nM.

**Q.** And the TGI (HOP-62 NSCLC)?
**A.** The TGI was 4020 nM.

**Q.** And the GI50 (RXF 393 renal)?
**A.** The GI50 was 1580 nM.

**Q.** What about the TGI (RXF 393 renal) of the same compound?
**A.** Its TGI is 3150 nM.

**Q.** And the GI50 (SF-268 CNS)?
**A.** The GI50 was 2090 nM.

**Q.** And the TGI (SF-268 CNS)?
**A.** Its TGI is 5470 nM.

**Q.** What about the GI50 (ACHN renal) of the same compound?
**A.** Its GI50 is 1830 nM.

**Q.** And the TGI (ACHN renal)?
**A.** Its TGI is 3470 nM.

**Q.** And the GI50 (SK-MEL-28 melanoma)?
**A.** The GI50 was 1590 nM.

**Q.** And the TGI (SK-MEL-28 melanoma)?
**A.** Its TGI is 5130 nM.

**Q.** What about the GI50 (HL-60(TB) leukemia) of the same compound?
**A.** The GI50 was 1510 nM.

**Q.** And the TGI (HL-60(TB) leukemia)?
**A.** Its TGI is 3940 nM.

**Q.** What about the GI50 (M14 melanoma) of the same compound?
**A.** The GI50 was 1290 nM.

**Q.** And the TGI (M14 melanoma)?
**A.** The TGI was 3670 nM.

**Q.** What about the GI50 (SNB-19 CNS) of the same compound?
**A.** Its GI50 is 1840 nM.

**Q.** What about the TGI (SNB-19 CNS) of the same compound?
**A.** The TGI was 5850 nM.

**Q.** What about the GI50 (COLO 205 colon) of the same compound?
**A.** Its GI50 is 1930 nM.

**Q.** What about the TGI (COLO 205 colon) of the same compound?
**A.** The TGI was 3670 nM.

**Q.** And the GI50 (OVCAR-8 ovarian)?
**A.** The GI50 was 2050 nM.

**Q.** And the TGI (OVCAR-8 ovarian)?
**A.** The TGI was 4700 nM.

**Q.** What about the GI50 (OVCAR-4 ovarian) of the same compound?
**A.** Its GI50 is 1800 nM.

**Q.** And the TGI (OVCAR-4 ovarian)?
**A.** Its TGI is 3340 nM.

**Q.** What about the GI50 (A498 renal) of the same compound?
**A.** The GI50 was 1330 nM.

**Q.** And the TGI (A498 renal)?
**A.** The TGI was 7780 nM.

**Q.** And the GI50 (CCRF-CEM leukemia)?
**A.** Its GI50 is 1970 nM.

**Q.** And the TGI (CCRF-CEM leukemia)?
**A.** The TGI was 5520 nM.

**Q.** And the GI50 (HCT-15 colon)?
**A.** The GI50 was 1260 nM.

**Q.** What about the TGI (HCT-15 colon) of the same compound?
**A.** The TGI was 2770 nM.

**Q.** And the GI50 (K-562 leukemia)?
**A.** Its GI50 is 1000 nM.

**Q.** What about the TGI (K-562 leukemia) of the same compound?
**A.** Its TGI is 6290 nM.

**Q.** What about the GI50 (SR leukemia) of the same compound?
**A.** The GI50 was 693 nM.

**Q.** And the TGI (SR leukemia)?
**A.** Its TGI is 3400 nM.

**Q.** And the GI50 (SK-OV-3 ovarian)?
**A.** Its GI50 is 2230 nM.

**Q.** What about the TGI (SK-OV-3 ovarian) of the same compound?
**A.** The TGI was 5230 nM.

**Q.** What about the GI50 (PC-3 prostate) of the same compound?
**A.** The GI50 was 1560 nM.

**Q.** What about the TGI (PC-3 prostate) of the same compound?
**A.** Its TGI is 4000 nM.

**Q.** What about the GI50 (T-47D breast) of the same compound?
**A.** Its GI50 is 2220 nM.

**Q.** What about the TGI (T-47D breast) of the same compound?
**A.** Its TGI is 5630 nM.

**Q.** What about the GI50 (DU-145 prostate) of the same compound?
**A.** Its GI50 is 1630 nM.

**Q.** And the TGI (DU-145 prostate)?
**A.** The TGI was 3170 nM.

**Q.** And the GI50 (IGROV1 ovarian)?
**A.** Its GI50 is 2160 nM.

**Q.** And the TGI (IGROV1 ovarian)?
**A.** The TGI was 5280 nM.

**Q.** And the GI50 (TK-10 renal)?
**A.** Its GI50 is 2450 nM.

**Q.** What about the TGI (TK-10 renal) of the same compound?
**A.** Its TGI is 4420 nM.

**Q.** And the GI50 (HCC-2998 colon)?
**A.** Its GI50 is 1240 nM.

**Q.** What about the TGI (HCC-2998 colon) of the same compound?
**A.** The TGI was 2510 nM.

**Q.** And the GI50 (NCI-H226 lung)?
**A.** Its GI50 is 13800 nM.

**Q.** And the TGI (NCI-H226 lung)?
**A.** Its TGI is 37000 nM.

**Q.** And the GI50 (UO-31 renal)?
**A.** The GI50 was 1460 nM.

**Q.** And the TGI (UO-31 renal)?
**A.** The TGI was 3460 nM.

**Q.** What about the GI50 (SW-620 colon) of the same compound?
**A.** Its GI50 is 1410 nM.

**Q.** What about the TGI (SW-620 colon) of the same compound?
**A.** Its TGI is 3280 nM.

**Q.** What about the GI50 (HS 578T breast) of the same compound?
**A.** The GI50 was 1730 nM.

**Q.** And the TGI (HS 578T breast)?
**A.** The TGI was 4800 nM.

**Q.** And the GI50 (786-0 renal)?
**A.** Its GI50 is 1940 nM.

**Q.** What about the TGI (786-0 renal) of the same compound?
**A.** Its TGI is 3810 nM.

**Q.** What about the GI50 (MOLT-4 leukemia) of the same compound?
**A.** The GI50 was 1990 nM.

**Q.** What about the TGI (MOLT-4 leukemia) of the same compound?
**A.** The TGI was 6080 nM.

**Q.** What about the GI50 (OVCAR-5 ovarian) of the same compound?
**A.** The GI50 was 1860 nM.

**Q.** And the TGI (OVCAR-5 ovarian)?
**A.** The TGI was 4000 nM.

**Q.** What about the GI50 (KM12 colon) of the same compound?
**A.** Its GI50 is 1220 nM.

**Q.** What about the TGI (KM12 colon) of the same compound?
**A.** Its TGI is 2650 nM.

**Q.** And the GI50 (SF-539 CNS)?
**A.** Its GI50 is 1780 nM.

**Q.** And the TGI (SF-539 CNS)?
**A.** The TGI was 3870 nM.

**Q.** What about the GI50 (HCT-116 colon) of the same compound?
**A.** The GI50 was 1550 nM.

**Q.** And the TGI (HCT-116 colon)?
**A.** The TGI was 3100 nM.

**Q.** What about the GI50 (OVCAR-3 ovarian) of the same compound?
**A.** The GI50 was 1530 nM.

**Q.** What about the TGI (OVCAR-3 ovarian) of the same compound?
**A.** The TGI was 2910 nM.
